Experimental data from US11660319B2, “Compositions comprising bacterial strains” (priority 2017, dated 2023).

Tests used:
SH-SY5Y cells = test: MAP2 and β3-tubulin immunoblotting / confocal microscopy; type: cell-based, human; conditions: treated 24 h; actin loading control
Experimental: Cells were seeded onto 8-well chamber slides (Marienfeld Laboratory Glassware) at 5×10^4 cells/well overnight and were treated with 10% bacterial supernatant for 24 h. For differentiation, cells were treated with 10 nM RA for 5 days before treating with cell-free bacterial supernatant for 24 h. Afterwards, the cells were fixed with 4% paraformaldehyde in PBS for 20 minutes at room temperature (RT). Fixed cells were washed with PBS, and permeabilized with 1% Triton X-100 in PBS for 10 minutes. After washing with PBS, the slides were incubated with blocking buffer (4% BSA/PBS) for 1 h at RT before adding anti-MAP2 antibody or β3-tubulin (sc-74421 and sc-80005 respectively, Santa Cruz Biotechnology Inc) diluted in 1% BSA/PBS for 12 h at 4° C. They were then washed twice with PBS, followed by incubation with Alexa Flour 488 conjugated anti-mouse (Molecular Probes Inc) and Alexa Flour 594 conjugated Phalloidin (ab176757, Abcam) for 1 h at RT. […]
SH-SY5Y cells cultured under the indicated conditions described above, treated with MRx0005 and MRx0029 for 24 h and then lysed in RIPA buffer containing cocktail of protease inhibitors (Roche Diagnostics, UK). […] The blots were then incubated with the appropriate horseradish peroxidase (HRP)-conjugated secondary antibody, and proteins were detected by chemiluminescence detection kit (Pierce Biotechnology, Rockford, Ill.). […]

mouse Splenocytes = test: Spleen cytokine assay ex vivo (LPS or ConA stimulation); type: in vivo
Experimental: Spleens were collected immediately in 5 mL RPMI media following sacrifice and cultured immediately. Spleen cells were first homogenised in this RPMI media, followed by 5 mins incubation with 1 ml of RBC lysis buffer (11814389001 ROCHE, Sigma). A further 10 ml of RPMI media was added, followed by 200G centrifugation for 5 mins. The supernatant was then filtered through 40 um strainer. Cells were counted and seeded (4,000,000/mL media). After 2.5 h of adaptation, cells were stimulated with lipopolysaccharide (LPS-2 μg/ml) or concanavalin A (ConA-2.5 μg/ml) for 24 h. Following stimulation, the supernatants were harvested to assess the cytokine release using Proinflammatory Panel 1 (mouse) V-PLEX Kit (Meso Scale Discovery, Maryland, USA) for TNFα, IL-10, IL-1β, Interferon γ, CXCL2 and IL6. The analyses were performed using MESO QuickPlex SQ 120, SECTOR Imager 2400, SECTOR Imager 6000, SECTOR S 600.
The ex-vivo splenocyte assay involves challenging the splenocytes (cells isolated from the spleen—a main organ involved in immune defense), with a bacterio- or viral-mimetic challenge.

NFκB promoter = NFκB promoter activation in Hek blue TLR4 cells (Quanti Blue); type: cell-based, human; conditions: 10% bacteria supernatant, 22 h
Experimental: Once grown the Human Hek blue cells were plated in 96 well plates at 25,000 cells/well in 4 replicates. One set of cells were treated with α-synuclein A53T (1 ug/mL) alone or with 10% of bacteria supernatant from MRX0029 for 22 h. The second set of cells were treated with LPS (10 ng/mL, from Salmonella enterica serotype Typhimurium, Sigma Aldrich, cat n. L6143) alone or with 10% of bacteria supernatant from MR029 for 22 h. The cells were subsequently spun down and 20 ul of the supernatant was mixed with 200 ul of Quanti Blue reagent (InvivoGen, cat n. rep-qb2), incubated for 2 h and absorbance read at 655 nm.

Substance: Megasphaera massiliensis [MRx0029]
- level expression of MAP2 (immunoblot) (SH-SY5Y cells): increase
- interleukin-6 in splenocytes (mouse Splenocytes; challenge with LPS): reduction
- interleukin-113 in splenocytes (mouse Splenocytes; challenge with LPS): reduction
- levels of interferon-γ in splenocytes (mouse Splenocytes; challenge with LPS): reduction
- levels of the chemoattractant CXCL1 (mouse Splenocytes; splenocytes): increase
- activation of the NFκB promoter by LPS (NFκB promoter; LPS 10 ng/mL): inhibited
- activation of the NFκB promoter by α-synuclein (NFκB promoter; α-synuclein A53T 1 ug/mL): not inhibited
